What all share (assay type): in vivo
Assay [1] concerns larvae of the banded cucumber beetle (Diabrotica balteata). The assay can be described thus: Diabrotica balteata spray test. The settings on record: 168 h, 100 g/ha (=32 μg/well), after 7 days, wheat seeds, read-out: efficacy (seedlings grown up). The gist of the method:
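Efficacy (%) read at day 7: 100% means seedlings grew like untreated, uninfested controls; 0% means no seedlings grew. Wheat seeds germinated 1 day on agar, sprayed with emulsified compound solution (1000 ppm emulsifier in water), then each well infested with 10-20 larvae.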

The subject of assay [2] is green peach aphid (Myzus persicae). The assay can be described thus: Myzus persicae spray test. To be noted: foliar, 120 h, 100 g/ha, after 5 days, Chinese cabbage leaf disks. The procedure: Solvent: 78.0 parts by weight acetone • 1.5 parts by weight dimethylformamide
Emulsifier: alkylarylpolyglycol ether
To produce a suitable preparation of active compound, 1 part by weight of active compound is mixed with the stated amount of solvents and is diluted with water, containing an emulsifier concentration of 1000 ppm, to the desired concentration. Further test concentrations are prepared by dilution with emulsifier containing water.
Chinese cabbage (Brassica pekinensis) leaf disks infected with all instars of the green peach aphid (Myzus persicae), are sprayed with a preparation of the active ingredient of the desired concentration.
After 5 days mortality in % is determined. 100% means all aphids have been killed and 0% means none of the aphids have been killed.

Assay [3] deals with larvae of the southern green stink bug (Nezara viridula). The assay can be described thus: Nezara viridula spray test. To be noted: in Hordeum vulgare, 96 h. The gist of the method:
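Percent mortality of southern green stink bug larvae read 4 days after spraying infested Hordeum vulgare. Test solutions: compound in acetone plus dimethylformamide, diluted with emulsifier-containing water (1000 ppm alkylarylpolyglycol ether).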

Assay [4] deals with brown planthopper (Nilaparvata lugens). The assay can be described thus: Nilaparvata lugens spray test. To be noted: in Oryza sativa, 96 h. The gist of the method:
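Rice plants (Oryza sativa) sprayed with compound in acetone/DMF diluted in water containing 1000 ppm alkylarylpolyglycol ether emulsifier, then infested with planthoppers. Mortality % scored after 4 days (100% = all killed, 0% = none killed).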

In assay [5] the test system is fall armyworm larvae (Spodoptera frugiperda). As to the kind of experiment: Spodoptera frugiperda spray test (maize leaf sections). The settings on record: 168 h. The method in brief: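 Percent kill of Spodoptera frugiperda larvae was recorded 7 days after infesting dried, treated maize leaf sections. Spray solutions were made from an acetone/DMF compound preparation diluted with 1000 ppm emulsifier-containing water.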

Assay [6] relates to caterpillars of the fall army worm (Spodoptera frugiperda). As to the kind of experiment: Spodoptera frugiperda spray test (cotton leaves). The settings on record: 168 h. The procedure:
Solvent: 14 parts by weight of dimethylformamide
Emulsifier: alkylaryl polyglycol ether
To produce a suitable preparation of active compound, 1 part by weight of active compound is mixed with the stated amount of solvent and is diluted with water, containing an emulsifier concentration of 1000 ppm, to the desired concentration. Further test concentrations are prepared by dilution with emulsifier containing water. Ammonium salt and/or penetration enhancer in a dosage of 1000 ppm are added to the desired concentration if necessary.
Cotton leaves (Gossypium hirsutum) are treated by being sprayed with the preparation of the active compound of the desired concentration and are infested with caterpillars of the fall army worm (Spodoptera frugiperda).
After 7 days mortality in % is determined. 100% means all the caterpillars have been killed and 0% means none of the caterpillars have been killed.

The test system of assay [7] is cattle tick larvae (Rhipicephalus microplus), strain Parkhurst, resistant against synthetic pyrethroids. As to the kind of experiment: Rhipicephalus (Boophilus) microplus in-vitro contact test, larval cattle tick. The settings on record: 5 μg/cm^2 (=500 g/ha), after 48 hours, read-out: efficacy (larvae dead or moribund). The method in brief: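 Efficacy, 100% meaning all larvae dead or moribund, was judged at 48 h from loss of negative geotactic climbing. Larvae of the Parkhurst strain, 20–50 per tube, were exposed at 27° C and 85% humidity to acetone-coated tube surfaces; 900 ppm corresponded to 5 μg/cm^2.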

Assay [8] deals with adult engorged female ticks (Rhipicephalus microplus). As to the kind of experiment: Rhipicephalus (Boophilus) microplus injection test. The settings on record: 168 h, 4 μg/animal, egg deposition after 7 days, read-out: efficacy (infertile eggs). The method in brief: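 Efficacy is the share of infertile eggs: 100% means none are fertile, 0% means all are fertile. Egg deposition was checked 7 days after injecting 1 μL of DMSO-diluted compound into the abdomen of five engorged female R. microplus, with doubtful eggs kept about 42 days to hatching. The stock was 10 mg in 0.5 mL DMSO.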

Assay [9] concerns adult cat fleas (Ctenocephalides felis). As to the kind of experiment: Ctenocephalides felis in-vitro contact test, adult cat flea. To be noted: 5 μg/cm^2 (=500 g/ha), after 48 hours, read-out: efficacy (fleas dead or moribund). The gist of the method: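 Efficacy (%) counts fleas that are dead or moribund, meaning unable to escape heat (45-50 °C, ≤5 min) by climbing. Scoring was done 48 h after 5-10 adults were placed at room temperature in glass tubes. The tubes carried a dried acetone film of compound, 5 μg/cm^2 at 900 ppm.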

The subject of assay [10] is adult unfed cat fleas (Ctenocephalides felis). As to the kind of experiment: Ctenocephalides felis oral test. To be noted: 48 h, 100 ppm in cattle blood, after 2 days. The method in brief: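 Percent flea mortality recorded at 2 days. Compound was dissolved in dimethyl sulfoxide and diluted into cattle blood, which ~20 unfed adult cat fleas ingested through parafilm from a 37°C-heated chamber, their own chamber kept at room temperature.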

Assay [11] concerns adult brown dog ticks (Rhipicephalus sanguineus). As to the kind of experiment: Rhipicephalus sanguineus in-vitro contact test with adult brown dog ticks. To be noted: after 48 hours, read-out: efficacy (ticks dead or moribund); for pest or weed control at 1 µg/cm2, 100 g/ha: 1 μg/cm^2 (=100 g/ha); for pest or weed control at 5 µg/cm2, 500 g/ha: 5 μg/cm^2 (=500 g/ha). The gist of the method: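 Efficacy is the percentage of adult ticks dead or moribund, meaning immotile or uncoordinated and unable to escape 45-50° C. heat within 5 min. Read 48 h after 5-10 ticks were enclosed at room temperature in acetone-coated glass tubes. Dose 5 μg/cm^2, from a 900 ppm coating solution.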

Assay [12] relates to green peach aphid (Myzus persicae). As to the kind of experiment: Myzus persicae oral test. The settings on record: 120 h. The method in brief: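 Readout: % mortality at day 5, where 100% = all aphids dead and 0% = none dead. Feeding via parafilm membrane over compound in IPL41 medium (33%+15% sugar); mixed-age population. Stock in acetone (1:100 w/w), water-diluted.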

As for `CON(C)c1nc([C@H](C)NC(=O)c2cc(OC(F)(F)F)cc(C3CC3)c2)n(-c2ncccn2)n1` [I-152], the pest or weed control at 32 µg/disc, 100 g/ha in assay [1] was 100%. Besides, the mortality at 100 g/ha in [2] worked out at 90%; in [5], 100%. Also, the mortality at 500 g/ha in [3] and in assay [4] was 100% in each case. Also, in assay [6], the mortality at 20 ppm turned out to be 100%.

On to `CNc1nc(C(C)NC(=O)c2cc(OC(F)(F)F)cc(C3CC3)c2)n(-c2ncccn2)n1` (stereo not shown) [I-101], for which the pest or weed control at 5 µg/cm2 in assay [7] and in assay [9] was 100% each time. Moreover, in [8], the pest or weed control at 0.004 mg was 100%. Also, in [10], the mortality at 100 ppm worked out at 100%. In assay [11], the pest or weed control at 1 µg/cm2, 100 g/ha stood at 100%. Besides, in assay [11], the pest or weed control at 5 µg/cm2, 500 g/ha was 100%. For the same molecule, the pest or weed control at 32 µg/disc, 100 g/ha in [1] was 100%. In [12], this molecule yielded a mortality at 4 ppm of 100%. Moreover, the mortality at 100 g/ha was found to be 90% in [2] and 100% in [5]. The mortality at 20 ppm in assay [6] was 100%.

For the molecule `CC(NC(=O)c1cc(C(F)(F)F)cc(C(F)(F)F)c1)c1nc(N)nn1-c1ccc(C#N)cn1` (stereo not shown) [I-104], the pest or weed control at 5 µg/cm2 in assay [7] and in assay [9] was 100% in each case. Besides, the pest or weed control at 0.004 mg in assay [8] is 100%. In addition, the mortality at 100 ppm in assay [10] amounted to 100%. The pest or weed control at 1 µg/cm2, 100 g/ha in assay [11] was 100%. Besides, the pest or weed control at 5 µg/cm2, 500 g/ha in assay [11] worked out at 100%. The pest or weed control at 32 µg/disc, 100 g/ha in assay [1] stood at 100%. Moreover, the mortality at 4 ppm in assay [12] came to 100%. For the same molecule, the mortality at 100 g/ha in assay [5] turned out to be 100%. For the same molecule, the mortality at 20 ppm in assay [6] is 100%.

With `CC(NC(=O)c1cc(OC(F)(F)F)cc(C2CC2)c1)c1nc(N)nn1-c1ncccn1` (stereo not shown) [I-097], the pest or weed control at 5 µg/cm2 in assay [7] and in assay [9] was 90% throughout. The pest or weed control at 0.004 mg in assay [8] came to 100%. The molecule further came in with a mortality at 100 ppm in [10] of 100%. In assay [1], the pest or weed control at 32 µg/disc, 100 g/ha was determined as 100%. This molecule also gave a mortality at 4 ppm in assay [12] of 100%. In addition, the mortality at 100 g/ha in assay [2], in assay [3] and in assay [5] was 100% throughout. For the same molecule, the mortality at 20 ppm in [6] came to 100%.

For the molecule `CNc1nc(C(C)NC(=O)c2cc(Br)cc(OC(F)(F)F)c2)n(-c2ncccn2)n1` (stereo not shown) [I-103], the pest or weed control at 5 µg/cm2 in assay [7] and in assay [9] was 100% throughout. The pest or weed control at 0.004 mg in [8] came out at 100%. In assay [10], this molecule came in with a mortality at 100 ppm of 100%. Besides, the pest or weed control at 1 µg/cm2, 100 g/ha in [11] was 100%. The pest or weed control at 5 µg/cm2, 500 g/ha in assay [11] amounted to 100%. The pest or weed control at 32 µg/disc, 100 g/ha in assay [1] amounted to 100%. In [12], this molecule came in with a mortality at 4 ppm of 100%. The mortality at 100 g/ha in assay [2] was determined as 90%; in [3], 100%; in assay [5], 100%. In assay [6], this molecule yielded a mortality at 20 ppm of 100%.

As to `CNc1nc(C(C)NC(=O)c2cc(Br)cc(C(F)(F)F)c2)n(-c2ncccn2)n1` (stereo not shown) [I-092], the pest or weed control at 5 µg/cm2 in assay [7] and in [9] was 100% each time. The pest or weed control at 0.004 mg in assay [8] came out at 100%. The molecule further came in with a mortality at 100 ppm in assay [10] of 100%. In addition, in assay [11], the pest or weed control at 1 µg/cm2, 100 g/ha was found to be 100%. Also, the pest or weed control at 5 µg/cm2, 500 g/ha in assay [11] was 100%. The pest or weed control at 32 µg/disc, 100 g/ha in assay [1] was 100%. Also, the mortality at 4 ppm in assay [12] came to 100%. Also, the figures for the mortality at 100 g/ha in [2], in assay [3] and in assay [5] were 90%, 100% and 100%, respectively. The mortality at 20 ppm in assay [6] is 80%.

With `C[C@H](NC(=O)c1cc(Br)cc(OC(F)(F)F)c1)c1nc(N(C)C)nn1-c1ncccn1` [I-139], the pest or weed control at 5 µg/cm2 in assay [7] and in assay [9] was 100% throughout. In addition, the pest or weed control at 1 µg/cm2, 100 g/ha in assay [11] came out at 80%. In addition, the pest or weed control at 5 µg/cm2, 500 g/ha in assay [11] was 100%. Moreover, the pest or weed control at 32 µg/disc, 100 g/ha in [1] was 100%. Further, the mortality at 500 g/ha in [3] and in assay [4] was 100% each time. Also, in assay [5], the mortality at 100 g/ha was determined as 100%. In assay [6], this molecule returned a mortality at 20 ppm of 100%.

The record behind these values is patent publication US20230028441A1, “NOVEL HETEROARYL-TRIAZOLE COMPOUNDS AS PESTICIDES” (Bayer Aktiengesellschaft, priority 2019, published 2023).
